Assay results: doi:10.1101/2021.09.16.460603v1 (biorxiv, 2021)

Target: T1, Bovine liver catalase (CAT) (Bos taurus, UniProt P00432)
T1 sequence (P00432 2-527): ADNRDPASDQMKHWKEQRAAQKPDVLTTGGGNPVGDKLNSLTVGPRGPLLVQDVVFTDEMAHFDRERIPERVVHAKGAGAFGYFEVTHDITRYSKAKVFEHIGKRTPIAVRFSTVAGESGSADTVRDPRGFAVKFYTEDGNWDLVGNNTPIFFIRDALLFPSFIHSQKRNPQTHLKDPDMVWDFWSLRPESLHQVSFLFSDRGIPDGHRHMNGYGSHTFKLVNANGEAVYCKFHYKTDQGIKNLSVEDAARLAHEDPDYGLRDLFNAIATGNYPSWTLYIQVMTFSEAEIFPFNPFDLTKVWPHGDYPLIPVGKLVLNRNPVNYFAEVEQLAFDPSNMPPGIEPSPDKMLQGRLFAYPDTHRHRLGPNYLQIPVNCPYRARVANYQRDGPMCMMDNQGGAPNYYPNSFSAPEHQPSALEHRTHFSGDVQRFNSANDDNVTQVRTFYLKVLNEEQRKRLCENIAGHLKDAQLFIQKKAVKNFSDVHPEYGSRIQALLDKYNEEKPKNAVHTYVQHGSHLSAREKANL
Assay: H2O2 disappearance at […] nm after […] min preincubation with D-Pen
Assay type: biochemical

CC(C)(S)[C@@H](N)C(=O)O [D-penicillamine] gave an IC50 of 191 ± 26 µM.
